Experimental data reported in ChEMBL document CHEMBL1144641, “DNA cleavage promoted by 2,9-dimethyl-4,7-diazadecane-2,9-dithiol (DDD) derivatives” (Bioorg Med Chem Lett, 2007).
Calls of active or inactive are those of the source. No cut-off for these calls is given here.

Key:
Assay type in all cases: nucleic-acid assay
Conditions in all cases: Escherichia coli
[1] = test system: Nucleic Acid; experiment: DNA cleavage activity assessed as conversion of supercoiled pUC19 plasmid to nicked form at pH 7 after 24 hrs
[2] = test system: Nucleic Acid; experiment: DNA cleavage activity assessed as conversion of supercoiled pUC19 plasmid to nicked form at pH 7 after 24 hrs in presence of hydrogen peroxide
[3] = test system: Nucleic Acid; experiment: DNA cleavage activity assessed as conversion of supercoiled pUC19 plasmid to nicked form at 0.286 mM at pH 7 after 24 hrs
[4] = test system: Nucleic Acid; experiment: DNA cleavage activity assessed as conversion of supercoiled pUC19 plasmid to nicked form at pH 7 after 12 hrs
[5] = test system: Nucleic Acid; experiment: DNA cleavage activity assessed as conversion of supercoiled pUC19 plasmid to nicked form at pH 7 after 1 hr
[6] = test system: Nucleic Acid; experiment: DNA cleavage activity assessed as conversion of supercoiled pUC19 plasmid to nicked form at pH 7 after 24 hrs in presence of sodium azide
[7] = test system: Nucleic Acid; experiment: DNA cleavage activity assessed as conversion of supercoiled pUC19 plasmid to nicked form at pH 7 after 24 hrs in presence of sodium iodide
[8] = test system: Nucleic Acid; experiment: DNA cleavage activity assessed as conversion of supercoiled pUC19 plasmid to nicked form at pH 7 after 24 hrs in presence of tertiary-butyl alcohol

Activity [1] | Activity [2] | Activity [3] | Activity [4] | Activity [5] | Activity [6] | Activity [7] | Activity [8] | SMILES
48.2% | – | – | – | – | – | – | – | CC1CC(C)CN(CCN(CCNCC(C)(C)S)CC(C)(C)S)C1 (stereo not given)
74.8% | – | – | – | – | – | – | – | CC(C)(S)CNCCN(CCN1CCCCC1)CC(C)(C)S
100% | Active | Active | 40.4% | 30.9% | inactive | inactive | inactive | CC1CCN(CCN(CCNCC(C)(C)S)CC(C)(C)S)CC1
